In patent US20220227745A1, “Compounds For Modulating FXR” (NANJING RUIJIE PHARMA TECH CO., LTD., priority 2019, published 2022):

Molecular target: T1, FXR LBD, GST (Homo sapiens, UniProt Q96RI1)
T1 construct: FXR LBD, GST; purchased Invitrogen PV4834
T1 sequence (Q96RI1 262-486 limits assumed): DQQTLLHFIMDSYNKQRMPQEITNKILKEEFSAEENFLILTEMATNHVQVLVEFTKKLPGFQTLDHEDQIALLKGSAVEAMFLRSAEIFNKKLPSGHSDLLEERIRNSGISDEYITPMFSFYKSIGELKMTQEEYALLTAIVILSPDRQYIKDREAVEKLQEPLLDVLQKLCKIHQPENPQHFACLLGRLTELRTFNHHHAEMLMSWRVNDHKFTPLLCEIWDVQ
Experiment: FXR Binding Assay (TR-FRET, Fluorescein-SRC2-2 coactivator peptide)
Details: for Emax: % Activity relative to positive control, read-out: Pct Effect (Emax %); for EC50: TR-FRET FXR LBD coactivator recruitment
Description: The interaction between the present compounds and FXR are evaluated by Time-Resolved Fluorescence Resonance Energy Transfer (TR-FRET) competition assay. FRET describes a radiation-free energy transfer between two chromophores: a donor fluorophore in its excited state can transfer energy to an acceptor fluorophore in close proximity (typically <10 nm). In contrast to standard FRET, TR-FRET unites time-resolved fluorescence (TRF) and the FRET principle, TRF use a long-lifetime lanthanide chelate as the donor species, while lanthanide chelates are unique in that their excited-state lifetime can be on the order of a millisecond or longer. Suitable neighbors for FRET are known in the art and can be obtained.
The assay was performed in following steps: first, prepared a) 1 mM compounds (100×) in DMSO; b) reaction buffer containing 1× buffer G with 10 mM DTT; c) 4×FXR LBD (20 nM) in 1× chilled buffer G. Second, performed 3-fold serial dilution of 1 mM test compounds using DMSO from 1 mM, 10 doses in a 96-well plate (249944, Nunc). Then, used complete buffer G to dilute each 100× compounds serial dilution to 2×. Third, added 10 μl 2× compound serial dilution into 384-well plate (3677, Corning). Then, added 5 μl FXR LBD into the assay plate. Prepared a solution containing 2 μM fluorescein-SRC2-2 (4×) and 20 nM Tb anti-GST antibody (4×) in buffer G at room temperature and started the reaction by adding 5 μl the above solution into each well of the assay plate. Centrifuged the assay plates at 1000 g for 1 min and then incubated at room temperature for lhr protected from light. Finally, the plate was read at wavelengths of 520 nm and 495 nm on Envision 2104 plate reader (PerkinElmer).
A ratio (Ratio520 nm/495 nm−Ratiobackground) was calculated for each well. The activity ratio was calculated as follow: […]
Ratiopositive: The average ratio for the positive control across the plate.
Ratiovehicle: The average ratio for negative controls across the plate.
EC50 was calculated by fitting % Activity values and log of compound concentrations to nonlinear regression (dose response-variable slope) with GraphPad 5.0.
X: log of compound concentration.

Compound	Emax [%]	EC50 [nM]
CC1CN(CCc2c(-c3c(Cl)cccc3Cl)noc2C2CC2)CCN1c1ccc(CC(=O)O)cc1 (stereo not shown) [Example I13, 2-(4-(4-(2-(5-cyclopropyl-3-(2,6-dichlorophenyl)isoxazol-4-yl)ethyl)-2-methylpiperazin-1-yl)phenyl)acetic Acid]	34.9	1530
CC1CN(c2ccc3nc(C(=O)O)ccc3c2)CCN1CCc1c(-c2c(Cl)cccc2Cl)noc1C1CC1 (stereo not shown) [Example I52, 6-(4-(2-(5-cyclopropyl-3-(2,6-dichlorophenyl)isoxazol-4-yl)ethyl)-3-methylpiperazin-1-yl)quinoline-2-carboxylic Acid]	121	209
O=C(O)c1ccc2nc(N3CC4CC(C3)C4OCc3c(-c4c(Cl)cccc4Cl)noc3C3CC3)sc2c1 (stereo not shown) [Example I67, 2-(6-((5-cyclopropyl-3-(2,6-dichlorophenyl)isoxazol-4-yl)methoxy)-3-azabicyclo[3.1.1]heptan-3-yl)benzo[d]thiazole-6-carboxylic Acid]		> 10000
COC(=O)c1ccc2cc(N3CCN(CCc4c(-c5c(Cl)cccc5Cl)noc4C4CC4)C(C)C3)ccc2n1 (stereo not shown) [Example I53, methyl 6-(4-(2-(5-cyclopropyl-3-(2,6-dichlorophenyl)isoxazol-4-yl)ethyl)-3-methylpiperazin-1-yl)quinoline-2-carboxylate]	68.4	436
O=C(O)c1cc(F)c2nc(N3C4CCC3CN(CCc3c(-c5ccccc5OC(F)(F)F)noc3C3CC3)C4)sc2c1 [Example I32, 2-(3-(2-(5-cyclopropyl-3-(2-(trifluoromethoxy)phenyl)isoxazol-4-yl)ethyl)-3,8-diazabicyclo[3.2.1]octan-8-yl)-4-fluorobenzo[d]thiazole-6-carboxylic Acid]	47.7	129
COC(=O)c1cn(C)c2cc(N3CCC(N(C)Cc4c(-c5c(Cl)cccc5Cl)noc4C4CC4)CC3)ccc12 [Example I59, methyl 6-(4-(((5-cyclopropyl-3-(2,6-dichlorophenyl)isoxazol-4-yl)methyl)(methyl)amino)piperidin-1-yl)-1-methyl-1H-indole-3-carboxylate]		> 10000
Cn1cc(C(=O)O)c2ccc(N3CCN(CCc4c(-c5ccccc5F)noc4C4CC4)CC3)cc21 [Example I19, 6-(4-(2-(5-cyclopropyl-3-(2-fluorophenyl)isoxazol-4-yl)ethyl)piperazin-1-yl)-1-methyl-1H-indole-3-carboxylic Acid]	104	4360
O=C(O)c1ccc2nc(N3CC4CC(C3)C4OCc3c(-c4c(Cl)cccc4Cl)noc3C3CC3)sc2c1 (stereo not shown) [Example I65, 2-(6-((5-cyclopropyl-3-(2,6-dichlorophenyl)isoxazol-4-yl)methoxy)-3-azabicyclo[3.1.1]heptan-3-yl)benzo[d]thiazole-6-carboxylic Acid]		> 10000
COC(=O)c1cn(C)c2cc(N3CCC(C)N(CCc4c(-c5c(Cl)cccc5Cl)noc4C4CC4)CC3)ccc12 (stereo not shown) [Example I56, methyl 6-(4-(2-(5-cyclopropyl-3-(2,6-dichlorophenyl)isoxazol-4-yl)ethyl)-5-methyl-1,4-diazepan-1-yl)-1-methyl-1H-indole-3-carboxylate]		> 10000
CC1CC(c2ccc3c(C(=O)O)cn(C)c3c2)CCN1CCc1c(-c2c(Cl)cccc2Cl)noc1C1CC1 (stereo not shown) [Example I57, 6-(1-(2-(5-cyclopropyl-3-(2,6-dichlorophenyl)isoxazol-4-yl)ethyl)-2-methylpiperidin-4-yl)-1-methyl-1H-indole-3-carboxylic Acid]	180	384
